Experimental data reported in patent US20250339470A1, “METHODS AND COMPOSITIONS FOR MATURING CARDIOMYOCYTES” (President and Fellows of Harvard College, priority 2024, published 2025).
“Also recorded” adds a separate entry of the source.

Legend:
hiPSC-CMs = assay: qPCR mRNA expression of hiPSC-CMs cultured 7 days on SAP-coated plates; assay type: cell-based, human; settings: 7 days on 0.25% SAP coating; control Geltrex
Experimental: At day 14 of cardiomyocyte differentiation, completion of the protocol was confirmed. Fully beating cardiomyocyte embryoid bodies were dissociated using the cardiomyocyte dissociation kit (STEMdiff Cardiomyocyte Dissociation Kit, […] Technologies, Canada) and reseeded (1.2 million cells/well) onto 6-well plates, which were prepared as follows. Each 6-well plate had 3 wells coated with Geltrex (control) and 3 wells coated with one of four self-assembling peptides (SAPs) at 0.25% concentration such that the differentiated cardiomyocytes would be cultured with the SAP. Specifically, the following SAPs were used in this study: RADA16, IEIK13, KLD12, and QLEL12. The cells were maintained for further in vitro analysis. Total RNA was extracted 7 days after initial exposure to each SAP to analyze messenger RNA (mRNA) expression of cardiomyocyte genes characteristics of an adult-like state. The inventors used Tryzol (TRIzol Reagent, Invitrogen, USA) to extract total RNA and a purification kit (E.Z.N.A. Total RNA kit I, Omega Bio-tec, Inc., Georgia, USA) according to the manufacturer's instructions. After quantification, RNA was reverse transcribed to cDNA using the High-Capacity cDNA Reverse Transcription Kit (Applied Biosystems) according to the manufacturer's instructions. Quantitative Polymerase Chain Reaction (qPCR) was performed in triplicate for each sample using the iTaq Universal SYBR Green Supermix (Bio-Rad) and the primer pairs (table S3) with a Bio-Rad CFX384 Real-Time thermal cycler. Double delta analyses were performed to compute the relative mRNA expression of each target gene using glyceraldehyde-3-phosphate dehydrogenase (GAPDH) as a housekeeping control gene.

[1] = system: hiPSC-CMs injected into the rat left ventricle wall; assay: Sarcomere organization (SOTA), orientation and length of injected hiPSC-CMs; assay type: in vivo; settings: 7 days post-injection
Experimental: The sections were stained with anti-cardiac troponin T antibody (Alexa Fluor 647 Mouse Anti-Cardiac Troponin T (cat #565744): cTnT, BD Pharmagen. 1:200), anti-human troponin I antibody (Recombinant Anti-Cardiac Troponin I antibody [EP1106Y] (ab52862): hTnI, Abcam 1:250), and DAPI as performed in the immunofluorescent staining. […] In this study, the inventors applied SarcOmere Texture Analysis (SOTA) to quantify sarcomere organization (17). SOTA was conducted by independent investigators who had no prior knowledge of the sample information. This methodological approach minimized potential biases and enhanced the reliability of the results.
hiPSC-CMs were stained with hTnI to identify myofilaments. […]
Sarcomere length was measured as the distance between hTnI-stained Z-lines from cardiomyocytes with visible sarcomere structures. An average of 10 sarcomeres from each sample was calculated on an interpolated YZ projection to account for spatial distribution across different regions of the image (45). […]
The inventors performed the automated analysis of sarcomere organization using SOTA, which was previously validated in endogenous, direct reprogrammed, and induced pluripotent-derived cardiomyocytes (17). […] The inventors also calculated the primary sarcomere orientation using the SOTA angle of peak prominence. […]

[2] = system: hiPSC-CMs transplanted into rat hearts; assay: Electrophysiological recording with flexible mesh nanoelectronics (Langendorff); assay type: in vivo; settings: 3 months after transplantation into the athymic rat heart
Experimental: The inventors used RNU nude rats (8-10 weeks old, male, 250-350 g). Rats received cyclosporine injections (15 mg/kg) as an immunosuppressant a day before the injection and every day after surgery. […] After at least five days of observation in healthy conditions, the rats were applied to the electrophysiological study. […] As a pre-surgical analgesic, buprenorphine (0.1 mg/kg) was administered to the rats before anesthesia. […] The distal ascending aorta was ligated with a 4-0 silk suture, followed by infusion of heparin to coronary arteries, with the right atrium cut open to infuse efficiently with decreased right atrium pressure. […] The temperature of the circulated solution, the chamber of the Langendorff, and the heart rate were monitored with a data acquisition system (Bridge Amp (PowerLab 8/30, ADInstruments, USA), Bio Amp (Product code: FE231, ADInstruments, USA), Spring Clip Electrodes (Product code: MLA1214, AD ADInstruments, USA), and LabChart software v8.1.20) until the heart beating became stable. […] The inventors analyzed the electrophysiological data with a customized Python script. […] The inventors then detected electrical spikes using “find_peaks” from Scipy. The inventors manually curated the detected spikes into host sinus rhythm, automaticity/arrhythmia rhythm, and noises. […] The spikes were recorded at both the injection and reference sites. • 2. […]

Row | Substance | expression of KCNJ2 (hiPSC-CMs) | sarcomere length [1] | expression of GJA1 (hiPSC-CMs) | expression of NANOG (hiPSC-CMs) | ratio of MYH7 mRNA expression to MYH6 expression (hiPSC-CMs) | ratio of TNNI3 to TNNI1 expression (hiPSC-CMs) | ventricular bigeminy [2]
1 | IEIK13 | significantly higher | – | – | – | – | – | –
2 | RADA16 | significantly higher; also recorded: highest expression | not associated with a difference | significantly higher in the RADA16 group compared to all other SAP groups and the control group; also recorded: highest expression | significantly lower in the RADA16 and control groups than in the IEIK13 group; also recorded: no significant difference between the control and RADA16 group; also recorded: significantly declined | significantly higher in the RADA16 group than in the IEIK13 and QLEL12 groups; also recorded: not significantly different between the RADA16 and control groups nor the RADA16 and KLD12 groups; also recorded: most pronounced increase | higher TNNI3/TNNI1 expression ratio | not observed
3 | KLD12 | significantly higher | – | – | – | – | – | –
